Measurements published in US20250230188A1, “METAGENOME-GUIDED BIOSYNTHESIS AND COMPOUNDS AND METHODS OF USE THEREOF” (The Rockefeller University, priority 2022, published 2025).
Converted amounts (≈) assume the structure as drawn. “Also recorded” adds a separate entry of the source. Like-named read-outs stand apart in the source and are kept apart here.

Columns and labels:
E. faecium com15 = assay: Syn-BNP MIC against ESKAPE pathogens: E. faecium; assay type: cell-based, Enterococcus faecium; conditions: for MIC: E. faecium com15, Gram-positive
Description: (§1) All syn-BNPs, as well as the parent antibiotic albicidin were assayed for antimicrobial activity against the ESKAPE pathogens (Enterococcus faecium, Staphylococcus aureus, Klebsiella pneumoniae, Acinetobacter baumannii, Pseudomonas aeruginosa, and Enterobacter species), which are a collection of bacteria most commonly associated with antibacterial resistant nosocomial infections. […]

S. aureus SH1000 = assay: Syn-BNP MIC against ESKAPE pathogens: S. aureus; assay type: cell-based, Staphylococcus aureus; conditions: for MIC: S. aureus SH1000, Gram-positive
Description: as §1

K. pneumoniae 10031 = assay: Syn-BNP MIC against ESKAPE pathogens: K. pneumoniae; assay type: cell-based, Klebsiella pneumoniae; conditions: for MIC: K. pneumoniae 10031, Gram-negative
Description: (§2) All syn-BNPs, as well as the parent antibiotic albicidin were assayed for antimicrobial activity against the ESKAPE pathogens (Enterococcus faecium, Staphylococcus aureus, Klebsiella pneumoniae, Acinetobacter baumannii, Pseudomonas aeruginosa, and Enterobacter species), which are a collection of bacteria most commonly associated with antibacterial resistant nosocomial infections.

A. baumannii = assay: Syn-BNP MIC against ESKAPE pathogens: A. baumannii; assay type: cell-based, Acinetobacter baumannii; conditions: for MIC: Gram-negative
Description: as §2

P. aeruginosa = assay: Syn-BNP MIC against ESKAPE pathogens: P. aeruginosa; assay type: cell-based, Pseudomonas aeruginosa; conditions: Gram-negative
Description: as §2

E. cloacae 13047 = assay: Syn-BNP MIC against ESKAPE pathogens: E. cloacae; assay type: cell-based, Enterobacter cloacae; conditions: E. cloacae 13047, Gram-negative
Description: as §2

E. coli 25922 = assay: Syn-BNP MIC against E. coli; assay type: cell-based, Escherichia coli; conditions: E. coli 25922, Gram-negative
E. coli-BL21 (pET28c) = assay type: cell-based, Escherichia coli; conditions: empty vector
Text: (§3) As circumventing common antibiotic resistance mechanisms was likely to play a key role in the natural selection of antibiotic congeners, the present studies investigated whether some of the congeners evolved to evade AlbD-mediated cleavage. To determine the susceptibility of the herein described BGC-inspired analogs to AlbD encoded resistance, the MIC of each syn-BNP against E. coli engineered to express AlbD was compared to that of E. coli containing an empty expression vector.

[1] = tested on: E. coli-BL21 (pET28c-AlbD); assay type: cell-based, Escherichia coli; conditions: for Fold increase in MIC: AlbD expressing strain versus empty vector strain; for MIC: E. coli-BL21 (pET28c-AlbD); for susceptibility to AlbD encoded resistance: E. coli expressing AlbD versus empty vector
Text: as §3

DNA gyrase = DNA gyrase (Escherichia coli, UniProt P0AES4+P0AES6); conditions: FIG. 9
Text: Further studies are focused on an investigation of other mutations via a clinical introduction of this class of antibiotics.

Row | MIC (E. faecium com15; Enterococcus faecium, read-out: MIC) [µg/mL] | MIC (S. aureus SH1000; Staphylococcus aureus, read-out: MIC) [µg/mL] | MIC (E. coli 25922; Escherichia coli, read-out: MIC) [µg/mL] | SMILES | MIC (E. faecium com15) [µg/mL] | MIC (S. aureus SH1000) [µg/mL] | MIC (K. pneumoniae 10031) [µg/mL] | MIC (A. baumannii) [µg/mL] | MIC (P. aeruginosa) [µg/mL] | MIC (E. cloacae 13047) [µg/mL] | MIC (E. coli 25922) [µg/mL] | MIC (E. coli-BL21 (pET28c)) [µg/mL] | Fold increase in MIC [1] [fold] | MIC [1] [µg/mL] | susceptibility to AlbD encoded resistance [1] | affinity for DNA gyrase (DNA gyrase) | fold more potent than albicidin (E. faecium com15; E. faecium) [fold] | fold more potent than albicidin (S. aureus SH1000; S. aureus) [fold] | fold more potent than albicidin (K. pneumoniae 10031; K. pneumoniae) [fold] | MIC compared with albicidin (A. baumannii)
1 | – | – | – | COc1c(NC(=O)c2ccc(NC(=O)c3ccc(NC(=O)[C@H](CC#N)NC(=O)c4ccc(NC(=O)/C(C)=C/c5ccc(O)cc5)cc4)cc3)c(OC)c2O)ccc(C(=O)O)c1O [Albicidin, reference compound] | 2 (≈ 2.37 µM) | 0.5 (≈ 0.593 µM) | >8 | 0.125 (≈ 0.148 µM) | 1 (≈ 1.19 µM) | 8 (≈ 9.49 µM) | 0.015 (≈ 0.0178 µM) | 0.0019 (≈ 0.00225 µM) | 131 | 0.25 (≈ 0.297 µM) | – | – | – | – | – | –
2 | 0.5 (≈ 1.51 µM) | 0.5 (≈ 1.51 µM) | 0.0075 (≈ 0.0226 µM) | O=C(O)c1cn(C2CC2)c2cc(N3CCNCC3)c(F)cc2c1=O [Ciprofloxacin, reference compound] | – | – | – | – | – | – | – | – | – | – | – | – | – | – | – | –
3 | – | – | – | COc1c(NC(=O)c2ccc(NC(=O)[C@H](CC#N)NC(=O)c3ccc(NC(=O)/C(C)=C/c4ccc(O)cc4)cc3)c(OC)c2O)ccc(C(=O)Nc2ccc(C(=O)O)cc2)c1O [PABA34] | >8 | >8 | >8 | 2 (≈ 2.37 µM) | 2 (≈ 2.37 µM) | 2 (≈ 2.37 µM) | – | 0.0075 (≈ 0.0089 µM) | 4 | 0.03 (≈ 0.0356 µM) | resistant to proteolytic cleavage by AlbD; also recorded: not susceptible to AlbD encoded resistance | retained a high affinity for DNA gyrase | – | – | – | –
4 | – | – | – | CO[C@@H](C(N)=O)[C@H](NC(=O)c1ccc(NC(=O)[C@@H](N)Cc2ccccc2)cc1)C(=O)Nc1ccc(C(=O)Nc2ccc(C(=O)Nc3ccc(C(=O)O)c(O)c3OC(C)C)c(O)c2OC(C)C)cc1 [PABA48] | 0.125 (≈ 0.134 µM) | 0.25 (≈ 0.268 µM) | 0.125 (≈ 0.134 µM) | 0.125 (≈ 0.134 µM) | >8 | >8 | 0.125 (≈ 0.134 µM) | 0.06 (≈ 0.0642 µM) | >133 | > 8 | – | – | 16 | 2 | > 64 | same MIC as albicidin
5 | – | – | – | CO[C@@H](C(N)=O)[C@H](NC(=O)c1ccc(NC(=O)[C@@H](N)Cc2ccc(O)cc2)cc1)C(=O)Nc1ccc(C(=O)Nc2ccc(C(=O)Nc3ccc(C(=O)O)cc3)c(O)c2OC(C)C)cc1 [PABA57] | >8 | >8 | 1 (≈ 1.14 µM) | >8 | >8 | >8 | 2 (≈ 2.28 µM) | 0.5 (≈ 0.571 µM) | >128 | > 64 | – | – | – | – | – | –
6 | – | – | – | CO[C@@H](C(N)=O)[C@H](NC(=O)c1ccc(NC(=O)[C@@H](N)Cc2ccc(O)cc2)cc1)C(=O)Nc1ccc(C(=O)Nc2ccc(C(=O)Nc3ccc(C(=O)O)c(O)c3OC(C)C)c(O)c2OC(C)C)cc1 [PABA70] | 1 (≈ 1.05 µM) | 1 (≈ 1.05 µM) | 1 (≈ 1.05 µM) | 4 (≈ 4.21 µM) | >8 | >8 | 2 (≈ 2.11 µM) | 0.5 (≈ 0.526 µM) | >128 | > 64 | – | – | – | – | – | –
7 | – | – | – | COc1c(NC(=O)/C(C)=C/c2ccc(O)cc2)ccc(C(=O)N[C@@H](CC#N)C(=O)Nc2ccc(C(=O)Nc3ccc(C(=O)Nc4ccc(C(=O)O)cc4)c(O)c3OC)c(O)c2OC)c1O [PABA95-2] | – | – | – | – | – | – | – | 0.06 (≈ 0.0675 µM) | 8 | 0.5 (≈ 0.563 µM) | not susceptible to AlbD encoded resistance | – | – | – | – | –
8 | – | – | – | COc1c(NC(=O)/C(C)=C/c2ccc(O)cc2)ccc(C(=O)N[C@@H](CC#N)C(=O)Nc2ccc(C(=O)Nc3ccc(C(=O)Nc4ccc(C(=O)O)cc4)c(O)c3OC)cc2)c1O [PABA95] | 8 (≈ 9.49 µM) | 4 (≈ 4.75 µM) | >8 | 0.5 (≈ 0.593 µM) | 8 (≈ 9.49 µM) | 8 (≈ 9.49 µM) | 0.25 (≈ 0.297 µM) | 0.015 (≈ 0.0178 µM) | 133 | 2 (≈ 2.37 µM) | – | – | – | – | – | –
